The results in this text go back to US10450346B2, “Immunotherapy against several tumors of the blood, in particular chronic lymphoid leukemia (CLL)” (Immatics biotechnologies GmbH, priority 2014, dated 2019).

For one test, the system named is CLL patient CD8+ T cells. Put plainly: HLA:peptide tetramer staining. The format is cell-based, human. The method, then: The frequency of peptide-specific CD8^+ T cells was determined by staining with anti-CD8 and HLA:peptide-tetramer-PE
The subject of test [1] is peptide-specific CD8+ T cells of CLL patient PBMC. Put plainly: Intracellular IFN-γ and TNF-α staining. The format is cell-based, human. The settings on record: peptide stimulated CLL patient PBMC. The method, then: PBMC from CLL patients and healthy volunteers were cultured in RPMI1640 medium (Gibco) supplemented with 10% pooled human serum (PHS, produced in-house), […] β-mercaptoethanol (Roth, Karlsruhe, Germany) and 1% penicillin/streptomycin (GE). For CD8^+ T cell stimulation, PBMC were thawed and pulsed with 1 μg/ml per peptide. Peptide-pulsed PBMC (5-6×10^6 cells/ml) were cultured at 37° C. and 5% CO2 for 12 days. On day 0 and day […] IL-4 (R&D Systems, Minneapolis, Minn., USA) and 5 ng/ml IL-7 (Promokine, Heidelberg, Germany) were added to the culture medium. On days 3, 5, 7 and 9, 2 ng/ml IL-2 (R&D Systems) were added to the culture medium. Peptide-stimulated PBMC were functionally characterized by ELISPOT assays on day 12 and by intracellular cytokine staining on day 13 respectively. For CD4^+ T-cell stimulation, culture was performed as described for CD8^+ T cells with 2 modifications: pulsing was carried out with 10 μg/ml of HLA class II peptide and no IL-4 and IL-7 was added.
The frequency and functionality of peptide-specific CD8^+ T cells was analyzed by intracellular IFN-γ and TNF-α staining. PBMC were pulsed with 1 μg/ml of individual peptide and incubated in the presence of 10 μg/ml Brefeldin A (Sigma, St. Louis, Mo., USA) and 10 μg/ml GolgiStop (BD) for 6-8 h. […] Samples were analyzed on a FACS Canto II.

For the next test, the system named is MHC class I. Put plainly: MHC binding assay (peptide-ligand exchange, β2m ELISA). Also on record: species or system human. The following applies: yield of UV-exchange reaction. The text has this:
Candidate peptides for T cell based therapies according to the present invention were further tested for their MHC binding capacity (affinity). The individual peptide-MHC complexes were produced by peptide-ligand exchange, where a cleavage-sensitive peptide is cleaved, and exchanged with the peptide of interest as analyzed. Only peptide candidates that can effectively bind and stabilize the peptide-receptive MHC molecules prevent dissociation of the MHC complexes. To determine the yield of the exchange reaction, an ELISA was performed based on the detection of the light chain (β2m) of stabilized MHC complexes. The assay was performed as generally described in Rodenko et al. (Rodenko et al., Nat Protoc. 1 (2006): 1120-1132).
96 well MAXISorp plates (NUNC) were coated over night with 2 ug/ml streptavidin in PBS at room temperature, washed 4× and blocked for 1 h at 37° C. in 2% BSA containing blocking buffer. Refolded HLA-A*0201/MLA-001 monomers served as standards, covering the range of 15-500 ng/ml. Peptide-MHC monomers of the UV-exchange reaction were diluted 100 fold in blocking buffer. Samples were incubated for 1 h at 37° C., washed four times, incubated with 2 ug/ml HRP conjugated anti-β2m for 1 h at 37° C., washed again and detected with TMB solution that is stopped with […]. Absorption was measured at 450 nm. […]
In general terms: ELISA stands for enzyme-linked immunosorbent assay.

The test system of test [2] is CD8+ T cells of healthy donors. Put plainly: In vitro T-cell priming with aAPCs loaded with peptide/MHC complexes and anti-CD28 antibody. The following applies: pMHC multimer readout. It counts as cell-based, human. The method, then:
In order to obtain information regarding the immunogenicity of the TUMAPs of the present invention, the inventors performed investigations using an in vitro T-cell priming assay based on repeated stimulations of CD8+ T cells with artificial antigen presenting cells (aAPCs) loaded with peptide/MHC complexes and anti-CD28 antibody. […]
Generation of pMHC/anti-CD28 coated beads, T-cell stimulations and readout was performed in a highly defined in vitro system using four different pMHC molecules per stimulation condition and 8 different pMHC molecules per readout condition. […]
800.000 beads/200 μl were coated in 96-well plates in the presence of 4×12.5 ng different biotin-pMHC, washed and 600 ng biotin anti-CD28 were added subsequently in a volume of 200 μl. […] For the pMHC multimer readout using 8 different pMHC molecules per condition, a two-dimensional combinatorial coding approach was used as previously described (Andersen et al., Nat. Protoc. 7 (2012): 891-902) with minor modifications encompassing coupling to 5 different fluorochromes. […] Peptide specific cells were calculated as percentage of total CD8+cells. […] In vitro priming of specific multimer+ CD8+ lymphocytes was detected by comparing to negative control stimulations.

As for “SSSGLHPPK (listed as Homo sapiens) [SEQ ID NO: 77]”, the “tetramer staining of CD8+ T cells” value with CLL patient CD8+ T cells is “confirmed”. The “intracellular cytokine staining for IFNγ and TNFα” value in test [1] is “confirmed”.

As to “229 (FRVGNVQEL; listed as Homo sapiens) [compound 229]”, the “Peptide exchange (MHC class I binding score)” value in the test with MHC class I was “++++ (>=75% = ++++)”.

For “KFAEEFYSF (listed as Homo sapiens) [SEQ ID NO: 20]”, in test [2], the “in vitro T-cell responses, positive donors of tested donors” value is 2 of 5.

Take “239 (SENAFYLSP; listed as Homo sapiens) [compound 239]”: the “Peptide exchange (MHC class I binding score)” value in the test on MHC class I was “++++ (>=75% = ++++)”.
